The source of these data is ChEMBL document CHEMBL2069221, “Hybrid molecules of carvacrol and benzoyl urea/thiourea with potential applications in agriculture and medicine” (Bioorg Med Chem Lett, 2012).

The subject of data set [1] is Dysdercus koenigii. The data set is described as follows: Insecticidal activity against 5th instar nymph of Dysdercus koenigii assessed as mortality per nymph. The class given is functional.
Data set [2] deals with Dysdercus koenigii. Put plainly: Insecticidal activity against 5th instar nymph of Dysdercus koenigii assessed as smaller body size at 20 and 50 ug/nymph. The class given is functional.
Data set [3] relates to Dysdercus koenigii. The data set is described as follows: Insecticidal activity against 5th instar nymph of Dysdercus koenigii assessed as crumpled wings at 20 and 50 ug/nymph. The class given is functional.
The test system of data set [4] is Dysdercus koenigii. The data set is described as follows: Insecticidal activity against 5th instar nymph of Dysdercus koenigii assessed as deformed legs at 20 and 50 ug/nymph. The class given is functional.
For another data set, the system named is Pyricularia grisea. Put plainly: Antifungal activity against Magnaporthe grisea after 48 hrs by microbroth dilution method. The class given is functional. Background: Dilution methods test growth across graded concentrations, often in twofold steps.
The next data set has as its system Fusarium oxysporum. The data set is described as follows: Antifungal activity against Fusarium oxysporum after 48 hrs by microbroth dilution method. The class given is functional.
The test system of a further data set is Drechslera. Put plainly: Antifungal activity against Dreschlera oryzae after 48 hrs by microbroth dilution method. The class given is functional.
The next data set concerns Debaryomyces hansenii. The data set is described as follows: Antifungal activity against Debaryomyces hansenii after 48 hrs by microbroth dilution method. The class given is functional.
Data set [5] in a line: Antifungal activity against Pichia membranifaciens after 48 hrs by microbroth dilution method. The class given is functional.
For data set [6], the system named is Candida albicans. The data set is described as follows: Antifungal activity against Candida albicans NCIM 3557 after 48 hrs by microbroth dilution method. The class given is functional.
Data set [7] deals with Candida albicans. The data set is described as follows: Antifungal activity against Candida albicans after 48 hrs by microbroth dilution method. The class given is functional.
Data set [8] deals with Candida albicans. Put plainly: Antifungal activity against Candida albicans NCIM 3471 after 48 hrs by microbroth dilution method. The class given is functional.
Another data set deals with Nakaseomyces glabratus. The data set is described as follows: Antifungal activity against Candida glabrata NCIM 3237 after 48 hrs by microbroth dilution method. The class given is functional.
For data set [9], the system named is Cryptococcus neoformans. Put plainly: Antifungal activity against Cryptococcus neoformans after 48 hrs by microbroth dilution method. The class given is functional.
In data set [10] the test system is Cryptococcus neoformans. Put plainly: Antifungal activity against Cryptococcus neoformans NCIM 3541 after 48 hrs by microbroth dilution method. The class given is functional.
The subject of data set [11] is Cryptococcus neoformans. Put plainly: Antifungal activity against Cryptococcus neoformans NCIM 3542 after 48 hrs by microbroth dilution method. The class given is functional.
Data set [12] relates to Cryptococcus neoformans. Put plainly: Antifungal activity against Cryptococcus neoformans NCIM 3378 after 48 hrs by microbroth dilution method. The class given is functional.
Data set [13] is described as follows: Toxicity in RBC assessed as induction of hemolysis. The class given is cell-based, Erythrocyte. As to conditions: red blood cells (RBC).
Data set [14] in a line: Toxicity in RBC assessed as induction of hemolysis at MIC. The class given is cell-based, Erythrocyte. The following applies: red blood cells (RBC); read-out: Activity.
Data set [15] is described as follows: Toxicity in RBC assessed as induction of hemolysis at 1000 ug/ml. The class given is cell-based, Erythrocyte. As to conditions: red blood cells (RBC); read-out: Activity.

In brackets after ≈: the same amount, converted by molar mass. Activity calls are given as the source filed them.

For orientation: MIC means the smallest concentration in the dilution series that meets the test's criterion for growth inhibition. A low value points to a more susceptible organism. For orientation: HC50 means the concentration giving 50% haemolysis. Regarding `Cc1cc(NC(=O)NC(=O)c2c(F)cccc2F)c(C(C)C)cc1O`, the LD50 with Dysdercus koenigii [1] came to 9.5 µg. For the same compound, the outcome in the data set with Dysdercus koenigii [2], in the data set on Dysdercus koenigii [3] and in the data set on Dysdercus koenigii [4] was Active. In addition, the minimal inhibitory concentration (MIC) (against Pyricularia grisea; against Fusarium oxysporum; against Drechslera; in the data set on Debaryomyces hansenii; in [5]) was greater than 512 µg/mL in each case. For the same compound, the GI in the data set with Candida albicans [6] was greater than 512 µg/mL; with Candida albicans [7], 16 µg/mL; with Candida albicans [8], 32 µg/mL; with Nakaseomyces glabratus it was 16 µg/mL; in the data set on Cryptococcus neoformans [9] it was greater than 512 µg/mL; in the data set with Cryptococcus neoformans [10], less than 4 µg/mL. Further, the GI in the data set on Cryptococcus neoformans [11] and with Cryptococcus neoformans [12] was 16 µg/mL each time. Also, the HC50 in [13] was greater than 1000 µg/mL. For the same compound, in data set [14], the hemolysis was less than 2%.

Take `Cc1cc(NC(=S)NC(=O)c2ccc(F)cc2)c(C(C)C)cc1O`: the LD50 with Dysdercus koenigii [1] was 12.6 µg. The MIC against Pyricularia grisea was 256 µg/mL (≈ 739 µM); against Fusarium oxysporum it was 128 µg/mL (≈ 369 µM); against Drechslera it was 256 µg/mL (≈ 739 µM); in the data set on Debaryomyces hansenii it was 256 µg/mL (≈ 739 µM); in data set [5] it was 512 µg/mL (≈ 1480 µM). Besides, the GI in the data set with Candida albicans [6] is 64 µg/mL; in the data set on Candida albicans [7], 64 µg/mL; with Candida albicans [8], greater than 512 µg/mL; in the data set on Nakaseomyces glabratus, 64 µg/mL; in the data set on Cryptococcus neoformans [9], 16 µg/mL; with Cryptococcus neoformans [10] it was 32 µg/mL. In addition, the GI with Cryptococcus neoformans [11] turned out to be 64 µg/mL; with Cryptococcus neoformans [12], 128 µg/mL. Further, the concentration for 50% haemolysis (HC50) in data set [13] is greater than 1000 µg/mL. Moreover, the hemolysis at 1000 ug/ml in [15] came to 17%.
